Experimental data: US10640495B2, “Heterocycle derivatives having TrkA inhibitory activity” (Shionogi & Co., Ltd., priority 2015, dated 2020)

Target: human TrkA (Homo sapiens (Human), UniProt P04629)
Assay: Human TrkA inhibition assay (Test Example 2)
Type: biochemical
Conditions: Table 152, human TrkA inhibition; read-out: IC50_nM
Method in brief: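 Recombinant TrkA (1 nmol/L) was preincubated 15 min at room temperature with compound in HEPES/MgCl2/DTT buffer, then reacted with FL-peptide 27 (1.5 μmol/L) and ATP (500 μmol/L) for 120 min at 37 °C. After EDTA stop, substrate phosphorylation was read by microfluidic mobility shift. IC50 came from logistic regression over 3-fold dilution series.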

Chain of human TrkA (P04629 440-796): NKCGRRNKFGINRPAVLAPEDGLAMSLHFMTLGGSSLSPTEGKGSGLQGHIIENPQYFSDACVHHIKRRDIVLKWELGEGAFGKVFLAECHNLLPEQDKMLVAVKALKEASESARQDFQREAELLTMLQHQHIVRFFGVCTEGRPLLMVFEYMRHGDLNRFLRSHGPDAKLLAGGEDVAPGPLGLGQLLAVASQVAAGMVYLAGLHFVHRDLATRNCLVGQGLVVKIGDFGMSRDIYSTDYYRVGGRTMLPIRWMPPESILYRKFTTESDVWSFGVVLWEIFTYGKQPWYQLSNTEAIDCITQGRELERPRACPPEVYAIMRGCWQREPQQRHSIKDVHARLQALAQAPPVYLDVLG

IC50 [nM] | SMILES
< 100 | COCCN1C[C@@H](NC(=O)Nc2c(C)c(C3=CCNCC3)nn2-c2ccccc2)[C@H](c2ccc(F)c(F)c2)O1 (racemic) [Compound I-30]
< 100 | COCCN1C[C@@H](NC(=O)Nc2c(C)c(-c3ccc(C(=O)O)cc3)nn2-c2ccccc2)[C@H](c2ccc(F)c(F)c2)O1 (racemic) [Compound I-35]

Same assay, conditions: Table 153, human TrkA inhibition; read-out: IC50

IC50 [nM] | SMILES
< 100 | COCCN1C[C@@H](NC(=O)Nc2c(C)c(-c3cnc(C(=O)N[C@@H]4CCOC4)c(C)c3)nn2-c2ccccc2)[C@H](c2ccnc(F)c2)O1 [Compound I-172]
< 100 | COCCN1C[C@@H](NC(=O)Nc2c(C)c(-c3cnn(C)c3)nn2-c2ccccc2)[C@H](c2cccc(F)c2)O1 (racemic) [Compound I-139]
< 100 | COCCN1C[C@@H](NC(=O)Nc2c(C)c(-c3cnc4c(c3)nnn4C)nn2-c2ccccc2)[C@H](c2cnc(F)c(F)c2)O1 (racemic) [Compound I-127]
< 100 | COCCN1C[C@@H](NC(=O)Nc2c(C)c(-c3cnc(C)nc3)nn2-c2ccccc2)[C@H](c2cnc(F)c(F)c2)O1 (racemic) [Compound I-45]

The next lines start with the compound.

SMILES | IC50 [nM]
COCCN1C[C@@H](NC(=O)Nc2cc(-c3cnc(OC)c(C(=O)NC4CCOCC4)c3)nn2C)[C@H](c2ccnc(F)c2)O1 (racemic) [Compound I-94] | > 1000
CNC(=O)c1cc(-c2nn(-c3ccccc3)c(NC(=O)N[C@@H]3CN(Cc4ccc(C#N)o4)O[C@H]3c3ccc(F)c(F)c3)c2C)cn(C)c1=O (racemic) [Compound I-150] | < 100

Same assay, conditions: Table 154, human TrkA inhibition; read-out: IC50

IC50 [nM] | SMILES
< 100 | COCCN1C[C@@H](NC(=O)Nc2c(C)c(-c3cnc(SC)nc3)nn2-c2ccccc2)[C@H](c2ccnc(F)c2)O1 (racemic) [Compound I-250]
< 100 | COCCN1C[C@@H](NC(=O)Nc2c(C)c(-c3cnc4c(c3)NCCO4)nn2-c2ccccc2)[C@H](c2ccnc(F)c2)O1 (racemic) [Compound I-306]
< 100 | COCCN1C[C@@H](NC(=O)Nc2c(C)c(-c3cnc(C(N)=O)c(C)c3)nn2-c2ccccc2)[C@H](c2cnc(F)c(F)c2)O1 [Compound I-252]
< 100 | COCCN1C[C@@H](NC(=O)Nc2c(C)c(-c3cnc(OC)nc3)nn2-c2ccccc2)[C@H](c2cc(F)nc(F)c2)O1 (racemic) [Compound I-187]

Second part, the compound before the results:

SMILES | IC50 [nM]
COCCN1C[C@@H](NC(=O)Nc2c(C)c(-c3ccnc(C(=O)OC)c3)nn2-c2ccccc2)[C@H](c2ccnc(F)c2)O1 (racemic) [Compound I-194] | < 100
COCCN1C[C@@H](NC(=O)Nc2c(C)c(-c3ccc4nnc(C)n4c3)nn2-c2ccccc2)[C@H](c2ccc(F)cc2)O1 (racemic) [Compound I-267] | < 100
COCCN1C[C@@H](NC(=O)Nc2c(C)c(-c3cnc4c(cnn4CC(F)(F)F)c3)nn2-c2ccccc2)[C@H](c2ccnc(F)c2)O1 (racemic) [Compound I-228] | < 100

Same assay, conditions: Table 155, human TrkA inhibition; read-out: IC50

IC50 [nM] | SMILES
< 100 | COCCN1C[C@@H](NC(=O)Nc2c(C)c(-c3cnn(C)c3)nn2-c2cccc(F)c2)[C@H](c2ccc(F)c(F)c2)O1 [Compound I-510]
< 100 | COCCN1C[C@@H](NC(=O)Nc2c(C)c(-c3cnc4c(c3)OCCO4)nn2-c2ccccc2)[C@H](c2ccc(F)c(F)c2)O1 [Compound I-463]
< 100 | COCCN1C[C@@H](NC(=O)Nc2c(C)c(-c3cnc4c(c3)CCN4)nn2-c2ccccc2)[C@H](c2ccnc(F)c2)O1 (racemic) [Compound I-351]
< 100 | COCCN1C[C@@H](NC(=O)Nc2c(C)c(-c3cnc4c(cnn4C)c3)nn2-c2ccccc2)[C@H](c2cnc(F)c(F)c2)O1 [Compound I-417]
< 100 | COCCN1C[C@@H](NC(=O)Nc2c(C)c(-c3ccn4ccnc4c3)nn2-c2ccccc2)[C@H](c2ccc(F)c(F)c2)O1 [Compound I-461]

Continued, compound first:

SMILES | IC50 [nM]
COCCN1C[C@@H](NC(=O)Nc2c(C)c(-c3cnc4c(c3)ncn4CC(=O)N(C)C)nn2-c2ccccc2)[C@H](c2ccnc(F)c2)O1 (racemic) [Compound I-402] | < 100
COCCN1C[C@@H](NC(=O)Nc2c(C)c(-c3cnc4c(c3)c(C(=O)N3CCN(C)CC3)nn4C)nn2-c2ccccc2)[C@H](c2ccnc(F)c2)O1 (racemic) [Compound I-377] | < 100
COCCN1C[C@@H](NC(=O)Nc2c(C)c(-c3cnc(C4[C@@H]5CC[C@H]4COC5)nc3)nn2-c2ccccc2)[C@H](c2ccnc(F)c2)O1 (mixture of isomers) [Compound I-438] | < 100
COCCN1C[C@@H](NC(=O)Nc2c(C)c(-c3cnc(N4CC(OC)C4)nc3)nn2-c2ccccc2)[C@H](c2ccnc(F)c2)O1 (racemic) [Compound I-489] | < 100
COCCN1C[C@@H](NC(=O)Nc2c(C)c(C(=O)NCC(C)(C)O)nn2-c2ccccc2)[C@H](c2ccnc(F)c2)O1 (racemic) [Compound I-385] | < 100
COCCN1C[C@@H](NC(=O)Nc2c(C)c(-c3cnc(N4CCC5(COC5)C4)nc3)nn2-c2ccccc2)[C@H](c2ccnc(F)c2)O1 (racemic) [Compound I-482] | < 100
COCCN1C[C@@H](NC(=O)Nc2c(C)c(-c3cnc4c(c3)nc(C(=O)NC3CCN(C)CC3)n4C)nn2-c2ccccc2)[C@H](c2ccnc(F)c2)O1 (racemic) [Compound I-404] | < 100
COCCN1C[C@@H](NC(=O)Nc2c(C)c(-c3cnc(-c4cnn(C)c4)nc3)nn2-c2ccccc2)[C@H](c2ccnc(F)c2)O1 (racemic) [Compound I-368] | < 100
COCCN1C[C@@H](NC(=O)Nc2c(C)c(-c3cnc(N4CCN(C(=O)OCc5ccccc5)CC4)nc3)nn2-c2ccccc2)[C@H](c2ccc(F)c(F)c2)O1 [Compound I-475] | < 100

Same assay, conditions: Table 156, human TrkA inhibition; read-out: IC50

IC50 [nM] | SMILES
< 100 | COCCN1C[C@@H](NC(=O)Nc2c(C)c(OCC3CN(C(C)=O)CCO3)nn2-c2ccccc2)[C@H](c2ccc(F)c(F)c2)O1 (single isomer, unassigned) [Compound I-577]
< 100 | COCCN1C[C@@H](NC(=O)Nc2c(C)c(OCC3CNCCO3)nn2-c2ccccc2)[C@H](c2ccc(F)c(F)c2)O1 (single isomer, unassigned) [Compound I-575]
< 100 | COCCN1C[C@@H](NC(=O)Nc2c(C)c(-c3ccc(OC)cc3)nn2-c2ccccc2)[C@H](c2ccnc(F)c2)O1 (racemic) [Compound I-554]
< 100 | COCCN1C[C@@H](NC(=O)Nc2c(C)c(-c3ccnc(C)c3)nn2-c2ccccc2)[C@H](c2ccnc(F)c2)O1 (racemic) [Compound I-529]
< 100 | COCCN1C[C@@H](NC(=O)Nc2c(C)c(-c3ccc(COC(C)=O)nc3)nn2-c2ccccc2)[C@H](c2ccc(F)c(F)c2)O1 [Compound I-531]

The next lines start with the compound.

SMILES | IC50 [nM]
CC(=O)N1CCC(COc2nn(-c3ccccc3)c(NC(=O)N[C@@H]3CN(CCF)O[C@H]3c3ccc(F)c(F)c3)c2C)CC1 (racemic) [Compound I-564] | < 100
Cc1c(OCC2CCNCC2)nn(-c2ccccc2)c1NC(=O)N[C@@H]1CN(CCF)O[C@H]1c1ccc(F)c(F)c1 (racemic) [Compound I-560] | < 100
COCCN1C[C@@H](NC(=O)Nc2c(C)c(-c3cnc(N4CCC(N(C)C)CC4)nc3)nn2-c2ccccc2)[C@H](c2ccnc(F)c2)O1 (racemic) [Compound I-532] | < 100

Same assay, conditions: Table 157, human TrkA inhibition; read-out: IC50

IC50 [nM] | SMILES
< 100 | COCCN1C[C@@H](NC(=O)Nc2c(Br)c(-c3cnc(OC)nc3)nn2-c2ccccc2)[C@H](c2ccnc(F)c2)O1 [Compound I-680]
< 100 | COCCN1C[C@@H](NC(=O)Nc2c(C)c(-c3cnc(N4CC[C@H](OC)C4)nc3)nn2-c2ccccc2)[C@H](c2ccnc(F)c2)O1 [Compound I-584]
< 100 | COCCN1C[C@@H](NC(=O)Nc2c(C)c(-c3cnc(N4CCN(C)[C@H](C)C4)nc3)nn2-c2ccccc2)[C@H](c2ccnc(F)c2)O1 [Compound I-592]
< 100 | COCCN1C[C@@H](NC(=O)Nc2c(C)c(-c3cnc(N4CCN(C)[C@@H](C)C4)nc3)nn2-c2ccccc2)[C@H](c2ccnc(F)c2)O1 [Compound I-593]
< 100 | CCN1C[C@@H](NC(=O)Nc2c(C)c(OC3CCN(C)CC3)nn2-c2ccccc2)[C@H](c2ccc(F)c(F)c2)O1 (racemic) [Compound I-631]
< 100 | CCN1C[C@@H](NC(=O)Nc2c(C)c(OCC3CNC(=O)O3)nn2-c2ccccc2)[C@H](c2ccc(F)c(F)c2)O1 (stereo partly drawn) [Compound I-675]
< 100 | COCCN1C[C@@H](NC(=O)Nc2c(C)c(-c3cnc(N(C)CCOC)nc3)nn2-c2ccccc2)[C@H](c2ccnc(F)c2)O1 (racemic) [Compound I-588]
< 100 | CCN1C[C@@H](NC(=O)Nc2c(C)c(OCCC3CCN(C(=O)OC(C)(C)C)C3)nn2-c2ccccc2)[C@H](c2ccc(F)c(F)c2)O1 (stereo partly drawn) [Compound I-597]
100 to 1000 | CCN1C[C@@H](NC(=O)Nc2c(C)c(OCC(C)(C)O)nn2-c2ccccc2)[C@H](c2ccc(F)c(F)c2)O1 (racemic) [Compound I-656]
< 100 | CCN1C[C@@H](NC(=O)Nc2c(C)c(OCCCC(=O)N(C)C)nn2-c2ccccc2)[C@H](c2ccc(F)c(F)c2)O1 (racemic) [Compound I-664]

Same assay, conditions: human TrkA 1 nmol/L, ATP 500 μmol/L, 120 min at 37° C.; read-out: IC50 values (TrkA phosphorylation inhibition)

IC50 [nM] | SMILES
0.48 | COCCN1C[C@@H](NC(=O)Nc2c(C)c(-c3cnc4c(c3)[nH]c(=O)n4C)nn2-c2ccccc2)[C@H](c2cnc(F)c(F)c2)O1 [Compound I-258]
0.52 | CNC(=O)c1ccc(-c2nn(-c3ccccc3)c(NC(=O)N[C@@H]3CN(CCOC)O[C@H]3c3ccc(F)c(F)c3)c2C)cn1 [Compound I-458]
2.1 | COCCN1C[C@@H](NC(=O)Nc2c(C)c(-c3ccnc(C(=O)O)c3)nn2-c2ccccc2)[C@H](c2ccc(F)c(F)c2)O1 (racemic) [Compound I-190]
1.2 | CNC(=O)c1cc(-c2nn(-c3ccccc3)c(NC(=O)N[C@@H]3C[C@@H](CCOC)O[C@H]3c3ccnc(F)c3)c2C)cnc1OC [Compound I-319]
